From BindingDB's records for doi:10.1021/jm100809g (F. Hoffmann-La Roche, 2011) come the findings set out here.

The structures appear in SMILES notation.

For the test, the target named is Carnitine O-palmitoyltransferase 1, liver isoform (Rattus norvegicus) (UniProt P32198). As to the kind of experiment: Maximal inhibition of rat CPT1A.
Sequence of Carnitine O-palmitoyltransferase 1, liver isoform (Rattus norvegicus) (P32198 whole entry, looked up, canonical isoform): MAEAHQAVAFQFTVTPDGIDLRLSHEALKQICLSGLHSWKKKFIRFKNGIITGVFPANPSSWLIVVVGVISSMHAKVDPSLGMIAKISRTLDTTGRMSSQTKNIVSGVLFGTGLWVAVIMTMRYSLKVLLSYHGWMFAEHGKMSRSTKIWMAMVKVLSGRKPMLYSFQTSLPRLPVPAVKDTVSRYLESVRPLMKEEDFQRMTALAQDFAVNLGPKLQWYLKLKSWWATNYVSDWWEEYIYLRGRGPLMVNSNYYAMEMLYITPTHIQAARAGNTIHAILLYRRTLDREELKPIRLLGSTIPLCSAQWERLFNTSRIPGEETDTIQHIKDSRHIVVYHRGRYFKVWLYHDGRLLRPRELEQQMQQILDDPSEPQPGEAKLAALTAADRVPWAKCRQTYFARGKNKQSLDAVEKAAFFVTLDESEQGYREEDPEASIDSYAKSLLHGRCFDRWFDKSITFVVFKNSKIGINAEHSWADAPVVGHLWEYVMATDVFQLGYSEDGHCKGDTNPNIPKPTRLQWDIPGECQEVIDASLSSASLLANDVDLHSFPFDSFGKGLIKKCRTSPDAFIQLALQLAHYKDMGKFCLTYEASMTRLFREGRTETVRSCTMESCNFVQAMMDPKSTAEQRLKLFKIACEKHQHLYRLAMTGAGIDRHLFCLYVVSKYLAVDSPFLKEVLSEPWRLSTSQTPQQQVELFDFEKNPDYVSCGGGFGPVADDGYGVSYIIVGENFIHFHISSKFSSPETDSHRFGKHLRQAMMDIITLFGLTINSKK
`C[N+](C)(C)C[C@H](N)CC(=O)[O-]` came in with an IC50 of 27300 nM. Take `O=C(COc1ccccc1)N1CCCC[C@@H]1c1nc(-c2ccccn2)cs1`: the IC50 was 130 nM. `COc1ccc(C)cc1S(=O)(=O)N1CCCc2ccc(C(=O)Nc3ccc(CC(=O)O)cc3)cc21` gave a half-maximal inhibitory concentration (IC50) of 180 nM. `COc1ccc(Cl)cc1S(=O)(=O)N1CC(C(=O)O)Oc2ccc(C(=O)Nc3cccc(F)c3)cc21` (configuration not stated) displayed an IC50 of 30 nM.

Turning to `COc1ccc(Cl)cc1S(=O)(=O)N1CCc2ccc(C(=O)Nc3ccc(C(=O)O)cc3)cc21`, 55 nM corresponded to half-maximal inhibition (IC50). Regarding `O=C(NCc1cccs1)c1nn(Cc2cccc(C(F)(F)F)c2)c2ccccc12`, the IC50 amounted to 150 nM. Compared with the last compound, the IC50 is about 2.7-fold higher. Under `CCCCCCCCCCCCCCNC(=O)N[C@H](CC(=O)[O-])C[N+](C)(C)C` [[3-Carboxy-2-(3-tetradecyl-ureido)-propyl]-trimethyl-ammonium] stands 1450 nM.

The IC50 is the midpoint of a concentration-inhibition curve. A low value points to higher potency.
